The text below walks through data of patent US20200325177A1, “METHODS OF MAKING STREPTOGRAMIN COMPOSITIONS AND THE USE THEREOF” (THE REGENTS OF THE UNIVERSITY OF CALIFORNIA, priority 2017, published 2020).

The subject of experiment [1] is K. pneumoniae multidrug-resistant. Briefly: MIC, Gram-negative bacteria: K. pneumoniae multidrug-resistant. Format: cell-based. To be noted: Klebsiella pneumoniae, read-out: Minimal Inhibitory Concentration (MIC) K. pneumoniae multidrug-resistant.
Experiment [2] relates to E. faecium VRE; vanA. In words: MIC, Gram-positive bacteria: E. faecium VRE; vanA. Format: cell-based. The following applies: Enterococcus faecium, column 3, read-out: Minimal Inhibitory Concentration (MIC) E. faecium VRE.
The test system of experiment [3] is E. faecium ATCC 35667. In words: MIC, Gram-positive bacteria: E. faecium ATCC 35667. Format: cell-based. The following applies: Enterococcus faecium, ATCC35667, column 2, read-out: Minimal Inhibitory Concentration (MIC) E. faecium ATCC 35667.
Experiment [4] deals with S. aureus Vat A streptogramin. Briefly: MIC, Gram-positive bacteria: S. aureus Vat A streptogramin. The experiment is classed as cell-based. To be noted: Staphylococcus aureus; Gram-positive; column 5; read-out: Minimal Inhibitory Concentration (MIC) S. aureus Vat A streptogramin.
The test system of experiment [5] is E. faecalis. Briefly: MIC, Gram-positive bacteria: E. faecalis. Format: cell-based. The following applies: Enterococcus faecalis, column 1, read-out: Minimal Inhibitory Concentration (MIC) E. faecalis.
The subject of experiment [6] is S. pneumoniae. In words: MIC, Gram-positive bacteria: S. pneumoniae. To be noted: Streptococcus pneumoniae, column 10, read-out: Minimal Inhibitory Concentration (MIC) S. pneumoniae. The experiment is classed as cell-based.
For experiment [7], the system named is Gram-Negative Organisms. Briefly: microbe, parasite or virus in culture. Format: cell-based.
Experiment [8] concerns S. aureus Linezolid-resistant; cfr. In words: MIC, Gram-positive bacteria: S. aureus Linezolid-resistant; cfr. The following applies: Staphylococcus aureus, column 9, read-out: Minimal Inhibitory Concentration (MIC) S. aureus Linezolid-resistant. The experiment is classed as cell-based.
The test system of experiment [9] is P. aeruginosa ATCC 27853. In words: MIC, Gram-negative bacteria: P. aeruginosa ATCC 27853. The following applies: Pseudomonas aeruginosa, ATCC27853, read-out: Minimal Inhibitory Concentration (MIC) P. aeruginosa ATCC 27853. Format: cell-based.
Experiment [10] relates to P. aeruginosa MDR clinical isolate. Briefly: MIC, Gram-negative bacteria: P. aeruginosa MDR clinical isolate. The following applies: Pseudomonas aeruginosa, read-out: Minimal Inhibitory Concentration (MIC) P. aeruginosa MDR clinical isolate. The experiment is classed as cell-based.
The test system of experiment [11] is S. aureus. Briefly: MIC, Gram-positive bacteria: S. aureus (strains not named). Format: cell-based. To be noted: Staphylococcus aureus, read-out: Minimal Inhibitory Concentration (MIC) S. aureus.
Experiment [12] deals with large subunit of the E. coli ribosome. Briefly: cryo-EM structure bound to ribosome. To be noted: 2.8 Angstrom resolution cryo-EM; isoquinoline sidechain reaches into the P-site. Format: binding. The text has this:
FIGS. 7A-7B. […] FIG. 7B depicts the structure of SAO110224.

In experiment [13] the test system is H. influenzae ATCC 49247. In words: MIC, Gram-negative bacteria: H. influenzae ATCC 49247. Format: cell-based. To be noted: Haemophilus influenzae, ATCC49247, read-out: Minimal Inhibitory Concentration (MIC) H. influenzae ATCC 49247.
Where [14] appears, read: Acinetobacter baumannii, ATCC19606, read-out: Minimal Inhibitory Concentration (MIC), A. baumannii ATCC 19606.
Where [15] appears, read: Escherichia coli, ATCC25922, read-out: Minimal Inhibitory Concentration (MIC), E. coli ATCC 25922.
The mark [16] stands for this setting: Escherichia coli, read-out: Minimal Inhibitory Concentration (MIC), E. coli BAS2006, OMP C, OMP F.
Where [17] appears, read: Escherichia coli, read-out: Minimal Inhibitory Concentration (MIC), E. coli olC efflux defective.
[18] abbreviates: Escherichia coli, read-out: Minimal Inhibitory Concentration (MIC), E. coli permeability mutant BAS1314, IMP4213ZAB::TN10.
Where [19] appears, read: Escherichia coli, read-out: Minimal Inhibitory Concentration (MIC), E. coli ΔompC768, KanR insert.
Setting [20] is: Klebsiella pneumoniae, ATCC43816, read-out: Minimal Inhibitory Concentration (MIC), K. pneumoniae ATCC 43816.
Where [21] appears, read: first unnamed S. aureus column (c4).
Where [22] appears, read: fourth unnamed S. aureus column (c8).
Where [23] appears, read: second unnamed S. aureus column (c6).
Where [24] appears, read: third unnamed S. aureus column (c7).

In brackets after ≈: the same amount, converted by molar mass. Like-named read-outs stand apart in the source and are kept apart here.

Take `CC1=C\[C@@H](O)CC(=O)Cc2nc(co2)C(=O)N2CCC[C@@H]2C(=O)O[C@H]([C@H](C)COC(=O)Nc2cc3ccccc3cn2)[C@H](C)/C=C/C(=O)NC\C=C\1` [SA0110224]: the MIC in [1] was more than 64 mg/L; in experiment [2], 8 mg/L (≈ 11.2 µM); in experiment [3] it was 4 mg/L (≈ 5.6 µM); in [4] it was 16 mg/L (≈ 22.4 µM); in experiment [5], more than 64 mg/L; in experiment [6] it was 16 mg/L (≈ 22.4 µM). The MIC in experiment [7] (setting [14]) was more than 64 mg/L; in experiment [7] (setting [15]), more than 64 mg/L; in experiment [7] (setting [16]) it was 8 mg/L (≈ 11.2 µM); in experiment [7] (setting [17]) it was 1 mg/L (≈ 1.4 µM); in [7] (setting [18]), 1 mg/L (≈ 1.4 µM); in [7] (setting [19]) it was more than 64 mg/L. Further, the MIC was more than 64 mg/L in [7] (setting [20]); more than 64 mg/L in [8]; more than 64 mg/L in experiment [9]; more than 64 mg/L in experiment [10]; 4 mg/L (≈ 5.6 µM) in experiment [11] (setting [21]); 4 mg/L (≈ 5.6 µM) in [11] (setting [22]). The MIC in [11] (setting [23]) is 4 mg/L (≈ 5.6 µM); in experiment [11] (setting [24]), 8 mg/L (≈ 11.2 µM); in [13], 2 mg/L (≈ 2.8 µM). Also, the “binding to ribosome seen in cryo-EM structure” value in experiment [12] is “bound to large subunit of the E. coli ribosome”.

For the molecule `CC1=C\[C@@H](O)CC(=O)Cc2nc(co2)C(=O)N2CCC[C@@H]2C(=O)O[C@H]([C@H](C)COC(=O)Nc2ccc(C(F)(F)F)cc2)[C@H](C)/C=C/C(=O)NC\C=C\1` [SA0110193], the MIC was more than 64 mg/L in experiment [1]; more than 64 mg/L in experiment [2]; 8 mg/L (≈ 10.9 µM) in experiment [3]; 16 mg/L (≈ 21.9 µM) in [4]; more than 64 mg/L in experiment [5]; more than 64 mg/L in experiment [6]. The MIC in experiment [7] (setting [14]) was more than 64 mg/L; in experiment [7] (setting [15]), more than 64 mg/L; in experiment [7] (setting [16]), more than 64 mg/L; in experiment [7] (setting [17]), 8 mg/L (≈ 10.9 µM); in [7] (setting [18]) it was 4 mg/L (≈ 5.47 µM); in [7] (setting [19]), more than 64 mg/L. Further, the MIC was more than 64 mg/L in experiment [7] (setting [20]); more than 64 mg/L in experiment [8]; more than 64 mg/L in experiment [9]; more than 64 mg/L in [10]; 8 mg/L (≈ 10.9 µM) in [11] (setting [21]); 8 mg/L (≈ 10.9 µM) in [11] (setting [22]). The MIC in experiment [11] (setting [23]) was 8 mg/L (≈ 10.9 µM); in experiment [11] (setting [24]) it was 16 mg/L (≈ 21.9 µM); in experiment [13], more than 64 mg/L.

Regarding `CC(C)[C@H]1OC(=O)[C@H]2CCCN2C(=O)c2coc(n2)CC(=O)C[C@H](O)/C=C/C=C/CNC(=O)/C=C/[C@H]1C` [SA0110239], the MIC was more than 64 mg/L in experiment [1]; more than 64 mg/L in [2]; more than 64 mg/L in [3]; more than 64 mg/L in [4]; more than 64 mg/L in experiment [5]; 64 mg/L (≈ 125 µM) in [6]. In addition, the MIC in experiment [7] (setting [14]) is more than 64 mg/L; in experiment [7] (setting [15]) it was more than 64 mg/L; in experiment [7] (setting [16]), 64 mg/L (≈ 125 µM); in [7] (setting [17]), 8 mg/L (≈ 15.6 µM); in experiment [7] (setting [18]), 8 mg/L (≈ 15.6 µM); in experiment [7] (setting [19]) it was more than 64 mg/L. Further, the MIC in experiment [7] (setting [20]), in experiment [8], in experiment [9], in experiment [10], in experiment [11] (setting [21]) and in experiment [11] (setting [22]) was more than 64 mg/L each time. Besides, the MIC in [11] (setting [23]), in experiment [11] (setting [24]) and in experiment [13] was more than 64 mg/L each time.

For `CC1=C\[C@@H](O)CC(=O)Cc2nc(co2)C(=O)N[C@H](Cc2ccc(O)cc2)C(=O)O[C@H](C(C)C)[C@H](C)/C=C/C(=O)NC\C=C\1` [SA0202097], the MIC in experiment [1] was more than 64 mg/L; in experiment [2] it was more than 64 mg/L; in experiment [3] it was more than 64 mg/L; in experiment [4] it was more than 64 mg/L; in experiment [5], more than 64 mg/L; in experiment [6] it was 64 mg/L (≈ 108 µM). The MIC in experiment [7] (setting [14]) was more than 64 mg/L; in experiment [7] (setting [15]), more than 64 mg/L; in [7] (setting [16]) it was more than 64 mg/L; in [7] (setting [17]), 32 mg/L (≈ 53.9 µM); in experiment [7] (setting [18]), 32 mg/L (≈ 53.9 µM); in [7] (setting [19]), more than 64 mg/L. Also, the MIC in [7] (setting [20]), in experiment [8], in experiment [9], in [10], in [11] (setting [21]) and in experiment [11] (setting [22]) was more than 64 mg/L throughout. The MIC in experiment [11] (setting [23]), in experiment [11] (setting [24]) and in [13] was more than 64 mg/L each time.

For the molecule `CC1=C\[C@@H](O)CC(=O)Cc2nc(co2)C(=O)N2CCC=C2C(=O)O[C@H](C(C)C)[C@H](C)/C=C/C(=O)NC\C=C\1` [virginiamycin M1, Virginiamycin M1, reference compound], the MIC was more than 64 mg/L in [1]; 4 mg/L (≈ 7.61 µM) in experiment [2]; 2 mg/L (≈ 3.81 µM) in experiment [3]; 32 mg/L (≈ 60.9 µM) in [4]; 32 mg/L (≈ 60.9 µM) in experiment [5]; 4 mg/L (≈ 7.61 µM) in [6]. For the same molecule, the MIC in experiment [7] (setting [14]) is more than 64 mg/L; in [7] (setting [15]) it was more than 64 mg/L; in experiment [7] (setting [16]), more than 64 mg/L; in experiment [7] (setting [17]) it was 2 mg/L (≈ 3.81 µM); in experiment [7] (setting [18]), 0.25 mg/L (≈ 0.476 µM); in experiment [7] (setting [20]) it was more than 64 mg/L. For the same molecule, the MIC is more than 64 mg/L in experiment [8]; more than 64 mg/L in [9]; more than 64 mg/L in experiment [10]; 4 mg/L (≈ 7.61 µM) in experiment [11] (setting [21]); 2 mg/L (≈ 3.81 µM) in experiment [11] (setting [22]); 2 mg/L (≈ 3.81 µM) in [11] (setting [23]). Moreover, the MIC in [11] (setting [24]) was determined as 8 mg/L (≈ 15.2 µM); in experiment [13], 1 mg/L (≈ 1.9 µM).
